# Source: patent US4265829A, “Halogenated-naphthalenetriyltris(sulfonylimino)-aryl disulfonic acids and salts thereof” (American Cyanamid Company, priority 1979, dated 1981)
# Counter-ions that a name gives are not always drawn.
# Tests used:
# [1] = test system: shunt pathway activated by cobra venom factor; assay: Test Code 036 (C-Shunt inhibitor); format: cell-based; conditions: serial twofold dilution assay; human erythrocytes in autologous serum; higher well number indicates higher activity
# Source text: (§1) An active inhibitor protects C2 from C1 and C4; (ii) Test Code 035 (C3-C9 inhibitor)--This test determines the ability of the late components of human complement (C3-C9) to lyse EAC 142 in the presence of appropriate dilutions of the test compound. An active inhibitor protects EAC 142 from lysis by human C3-C9; (iii) Test Code 036 (C-Shunt inhibitor)--In this test human erythrocytes rendered fragile are lysed in autologous serum via the shunt pathway activated by cobra venom factor in the presence of appropriate dilutions of the test compound. Inhibition of the shunt pathway results in failure of lysis; (iv) Forssman Vasculitis Test--Here, the well known complement dependent lesion, Forssman vasculitis, is produced in guinea pigs by intradermal injection of rabbit anti-Forssman antiserum. […] Percent inhibition is calculated by comparison with simultaneous controls. […]
# activated human C1 = activated human C1 (Homo sapiens, UniProt P09871); assay: Test Code 026 (C1 inhibitor); format: biochemical; conditions: serial twofold dilution assay; higher well number indicates higher activity
# Source text: as §1
# [2] = test system: late components of human complement (C3-C9); assay: Test Code 035 (C3-C9 inhibitor); format: biochemical; conditions: serial twofold dilution assay; lysis of EAC 142; higher well number indicates higher activity
# Source text: as §1
# [3] = test system: serum complement activity; assay: Guinea Pig Intraperitoneal Test (GPIP); format: in vivo; conditions: 200 mg./kg. i.p.
# Source text: An active inhibitor protects C2 from C1 and C4; (ii) Test Code 035 (C3-C9 inhibitor)--This test determines the ability of the late components of human complement (C3-C9) to lyse EAC 142 in the presence of appropriate dilutions of the test compound. An active inhibitor protects EAC 142 from lysis by human C3-C9; (iii) Test Code 036 (C-Shunt inhibitor)--In this test human erythrocytes rendered fragile are lysed in autologous serum via the shunt pathway activated by cobra venom factor in the presence of appropriate dilutions of the test compound. Inhibition of the shunt pathway results in failure of lysis; (iv) Forssman Vasculitis Test--Here, the well known complement dependent lesion, Forssman vasculitis, is produced in guinea pigs by intradermal injection of rabbit anti-Forssman antiserum. The lesion is measured in terms of diameter, edema and hemorrhage and the extent to which a combined index of these is inhibited by prior intraperitoneal injection of the test compound at 200 mg./kg. is then reported, unless otherwise stated; (v) Forssman Shock Test--Lethal shock is produced in guinea pigs by an i.v. injection of anti-Forssman antiserum and the harmonic mean death time of treated guinea pigs is compared with that of simultaneous controls; (vi) Complement Level Reduction Test--In this test, the above dosed guinea pigs, or others, are bled for serum and the complement level is determined in undiluted serum by the capillary tube method of U.S. Pat. No. 3,876,376 and compared to undosed control guinea pigs; (vii) Cap 50 Test--Here, appropriate amounts of the test compound are added to a pool of guinea pig serum in vitro, after which the undiluted serum capillary tube assay referred to above is run. The concentration of compound inhibiting 50% is reported; (viii) Guinea Pig Intraperitoneal Test (GPIP)--Guinea pigs weighing about 300 g. are dosed intraperitoneally (i.p.) with 200 mg./kg. of the test compound dissolved in saline and adjusted to pH 7-8. […] Percent inhibition is calculated by comparison with simultaneous controls. […]
smiles,measurement,setting,value
"O=S(=O)(O)c1cc(NS(=O)(=O)c2cc(S(=O)(=O)Nc3cc(S(=O)(=O)O)cc(S(=O)(=O)O)c3)c3c(Cl)ccc(S(=O)(=O)Nc4cc(S(=O)(=O)O)cc(S(=O)(=O)O)c4)c3c2)cc(S(=O)(=O)O)c1 [5,5',5""-[(8-Chloro-1,3,5-napthalenetriyl)tris (sulfonylimino)]-tri-1,3-benzenedisulfonic acid, hexasodium salt]",Shunt Inhibition 036 Wells,[1],+5 Wells
same,Cl 026 Wells,activated human C1,+7 Wells
same,C-Late 035 Wells,[2],+1 Wells
same,"In Vivo Activity (Guinea Pig) % Inhibition Intraperitoneal, 30 minutes",[3]; serum taken 30 minutes after injection,-67%
same,"In Vivo Activity (Guinea Pig) % Inhibition Intraperitoneal, 60 minutes",[3]; serum taken 60 minutes after injection,-72%
same,"In Vivo Activity (Guinea Pig) % Inhibition Intraperitoneal, 120 minutes",[3]; serum taken 120 minutes after injection,-81%
